Results: US20130102618A1, “3-AMINO-5,6-DIHYDRO-1H-PYRAZIN-2-ONE DERIVATIVES USEFUL FOR THE TREATMENT OF ALZHEIMER'S DISEASE AND OTHER FORMS OF DEMENTIA” (JANSSEN PHARMACEUTICA NV, priority 2010, published 2013)

Columns and labels:
[1] = tested on: Aβtotal produced and secreted into the medium of human neuroblastoma SKNBE2 cells; experiment: Cellular αlisa assay in SKNBE2 cells, Aβtotal; format: cell-based; conditions: SKNBE2 expressing wild type hAPP695, incubated for 18 hours, read-out: Cellular αlisa assay in SKNBE2 cells Aβtotal pIC50 (converted)
Experimental: (§1) In two αlisa assays the levels of Aβtotal and Aβ42 produced and secreted into the medium of human neuroblastoma SKNBE2 cells are quantified. The assay is based on the human neuroblastoma SKNBE2 expressing the wild type Amyloid Precursor Protein (hAPP695). The compounds are diluted and added to these cells, incubated for 18 hours and then measurements of Aβ42 and Aβtotal are taken. Aβtotal and Aβ42 are measured by sandwich αlisa. αlisa is a sandwich assay using biotinylated antibody AbN/25 attached to streptavidin coated beads and antibody Ab4G8 or cAb42/26 conjugated acceptor beads for the detection of Aβtotal and Aβ42 respectively. In the presence of Aβtotal or Aβ42, the beads come into close proximity. The excitation of the Donor beads provokes the release of singlet oxygen molecules that triggers a cascade of energy transfer in the Acceptor beads, resulting in light emission. Light emission is measured after 1 hour incubation (excitation at […] and emission at 615 nm).
(§2) A best-fit curve is fitted by a minimum sum of squares method to the plot of % Controlmin versus compound concentration. From this an IC50 value (inhibitory concentration causing 50% inhibition of activity) can be obtained.

[2] = tested on: Aβ42 produced and secreted into the medium of human neuroblastoma SKNBE2 cells; experiment: Cellular αlisa assay in SKNBE2 cells, Aβ42; format: cell-based; conditions: SKNBE2 expressing wild type hAPP695, incubated for 18 hours, read-out: Cellular αlisa assay in SKNBE2 cells Aβ42 pIC50 (converted)
Experimental: as §1, §2

[3] = biological target: T1, recombinant BACE1 protein (Homo sapiens, UniProt P56817); experiment: Biochemical FRET based assay; conditions: recombinant BACE1 1 μg/ml, APP-derived Swedish-mutation peptide substrate, 120 minutes, room temperature, pH 5.0; read-out: Biochemical FRET based assay pIC50 (converted)
T1 construct: recombinant BACE1 protein in a final concentration of 1 μg/ml
Description: This assay is a Fluorescence Resonance Energy Transfer Assay (FRET) based assay. The substrate for this assay is an APP derived 13 amino acids peptide that contains the ‘Swedish’ Lys-Met/Asn-Leu mutation of the amyloid precursor protein (APP) β-secretase cleavage site. This substrate also contains two fluorophores: (7-methoxy-coumarin-4-yl)acetic acid (Mca) is a fluorescent donor with excitation wavelength at 320 nm and emission at 405 nm and 2,4-Dinitrophenyl (Dnp) is a proprietary quencher acceptor. […] Upon cleavage by BACE1, the fluorophore Mca is separated from the quenching group Dnp, restoring the full fluorescence yield of the donor. The increase in fluorescence is linearly related to the rate of proteolysis (Koike H et al. J Biochem. 1999, 126, 235-42).
Briefly in a 384-well format recombinant BACE1 protein in a final concentration of 1 μg/ml is incubated for 120 minutes at room temperature with 10 μm substrate in incubation buffer (40 mM Citrate buffer pH 5.0, 0.04% PEG, 4% DMSO) in the absence or presence of compound. Next the amount of proteolysis is directly measured by fluorescence measurement at T=0 and T=120 (excitation at 320 nm and emission at 405 nm). Results are expressed in RFU, as difference between T120 and T0.
A best-fit curve is fitted by a minimum sum of squares method to the plot of % Controlmin versus compound concentration. From this an […] value (inhibitory concentration causing 50% inhibition of activity) can be obtained.

T1 sequence (P56817 46-501): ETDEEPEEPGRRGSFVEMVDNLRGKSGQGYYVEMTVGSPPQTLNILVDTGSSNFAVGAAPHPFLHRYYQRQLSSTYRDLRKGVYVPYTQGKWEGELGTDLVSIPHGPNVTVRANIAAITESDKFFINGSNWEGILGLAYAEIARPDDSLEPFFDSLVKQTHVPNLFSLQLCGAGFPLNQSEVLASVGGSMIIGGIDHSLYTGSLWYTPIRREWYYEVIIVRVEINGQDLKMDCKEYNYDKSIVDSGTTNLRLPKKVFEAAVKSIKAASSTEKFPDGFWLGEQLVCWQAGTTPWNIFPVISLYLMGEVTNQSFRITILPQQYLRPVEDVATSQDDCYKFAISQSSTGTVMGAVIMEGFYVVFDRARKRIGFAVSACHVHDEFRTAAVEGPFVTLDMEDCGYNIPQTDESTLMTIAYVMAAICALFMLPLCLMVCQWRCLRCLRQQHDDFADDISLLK

IC50 [1] [µM]	IC50 [2] [µM]	melting point [°C]	IC50 [3] [µM]	SMILES
5.75	7.08	218.6	27.5	CN1CC(C)(c2cccc(-c3cccc(C#N)c3)c2)N=C(N)C1=O (stereo not drawn) [compound 1]
5.75	7.94	230.4	15.5	COc1cncc(-c2cccc(C3(C)CN(C)C(=O)C(N)=N3)c2)c1 (stereo not drawn) [compound 2]
0.107	0.115	–	0.457	CN1CC(C)(c2cccc(NC(=O)c3ccc(Cl)cn3)c2)N=C(N)C1=O (stereo not drawn) [compound 3]
> 10	> 10	141.5	> 30.2	CN1CC(C)(c2cc(-c3ccccc3)c(F)cc2F)N=C(N)C1=O (stereo not drawn) [compound 6]
4.07	4.47	180.5	7.59	COc1cncc(-c2cc(C3(C)CN(C)C(=O)C(N)=N3)c(F)cc2F)c1 (stereo not drawn) [compound 7]
> 10	> 10	145.2	> 30.2	CN1CC(C)(c2cc(-c3cncnc3)c(F)cc2F)N=C(N)C1=O (stereo not drawn) [compound 10]
> 10	> 10	234.6	> 30.2	CN1CC(C)(c2cccc(-c3cncnc3)c2)N=C(N)C1=O (stereo not drawn) [compound 16]
